{
  "source": "paper PMC9329436",
  "about": "“Optimization of the 4-anilinoquin(az)oline scaffold as epidermal growth factor receptor (EGFR) inhibitors for chordoma utilizing a toxicology profiling assay platform” (Scientific Reports, 2022)",
  "assay_type_in_all_cases": "biochemical",
  "key": {"[1]": {"biological_target": "T1, 320 wild-type protein kinases (Homo sapiens, UniProt O00418)", "T1 sequence (O00418 1-725)": "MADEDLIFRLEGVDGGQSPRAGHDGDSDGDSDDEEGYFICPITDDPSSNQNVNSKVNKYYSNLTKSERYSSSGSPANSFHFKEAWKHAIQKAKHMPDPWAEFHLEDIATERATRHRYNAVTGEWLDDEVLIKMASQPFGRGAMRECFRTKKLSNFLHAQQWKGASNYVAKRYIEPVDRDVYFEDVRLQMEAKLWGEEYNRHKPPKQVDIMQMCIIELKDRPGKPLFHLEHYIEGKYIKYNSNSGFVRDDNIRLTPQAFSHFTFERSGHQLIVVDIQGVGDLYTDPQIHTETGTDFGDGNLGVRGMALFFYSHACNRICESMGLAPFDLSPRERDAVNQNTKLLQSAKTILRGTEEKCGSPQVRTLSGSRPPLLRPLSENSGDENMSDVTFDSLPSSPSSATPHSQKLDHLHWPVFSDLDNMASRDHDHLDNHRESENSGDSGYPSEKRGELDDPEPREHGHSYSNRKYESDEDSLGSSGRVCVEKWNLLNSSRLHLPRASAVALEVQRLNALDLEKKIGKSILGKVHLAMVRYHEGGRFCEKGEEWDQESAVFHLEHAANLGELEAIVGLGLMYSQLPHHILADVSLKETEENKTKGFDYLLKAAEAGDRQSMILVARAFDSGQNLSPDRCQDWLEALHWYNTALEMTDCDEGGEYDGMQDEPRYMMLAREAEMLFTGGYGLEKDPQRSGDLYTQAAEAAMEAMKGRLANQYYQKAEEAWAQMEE", "settings": "EEF2K, singlicate", "description": "(§1) Table S4. Profiling of two compounds at two concentrations against 320 wild-type protein kinases; singlicate measurement; Residual activities (% of control)."}, "[2]": {"biological_target": "320 wild-type protein kinases (Homo sapiens, UniProt O75716)", "sequence (O75716 whole entry)": "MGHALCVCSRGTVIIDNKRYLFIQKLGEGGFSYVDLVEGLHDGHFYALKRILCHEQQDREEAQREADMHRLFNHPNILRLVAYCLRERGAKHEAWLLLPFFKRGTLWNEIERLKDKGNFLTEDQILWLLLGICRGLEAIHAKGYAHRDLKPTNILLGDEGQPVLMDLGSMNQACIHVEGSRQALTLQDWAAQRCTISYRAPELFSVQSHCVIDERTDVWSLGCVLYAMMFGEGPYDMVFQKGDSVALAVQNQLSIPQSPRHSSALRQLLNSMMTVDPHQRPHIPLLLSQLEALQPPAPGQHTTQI", "settings": "kinase TSF1, singlicate", "description": "as §1"}, "[3]": {"biological_target": "320 wild-type protein kinases (Homo sapiens, UniProt O96017)", "sequence (O96017 whole entry)": "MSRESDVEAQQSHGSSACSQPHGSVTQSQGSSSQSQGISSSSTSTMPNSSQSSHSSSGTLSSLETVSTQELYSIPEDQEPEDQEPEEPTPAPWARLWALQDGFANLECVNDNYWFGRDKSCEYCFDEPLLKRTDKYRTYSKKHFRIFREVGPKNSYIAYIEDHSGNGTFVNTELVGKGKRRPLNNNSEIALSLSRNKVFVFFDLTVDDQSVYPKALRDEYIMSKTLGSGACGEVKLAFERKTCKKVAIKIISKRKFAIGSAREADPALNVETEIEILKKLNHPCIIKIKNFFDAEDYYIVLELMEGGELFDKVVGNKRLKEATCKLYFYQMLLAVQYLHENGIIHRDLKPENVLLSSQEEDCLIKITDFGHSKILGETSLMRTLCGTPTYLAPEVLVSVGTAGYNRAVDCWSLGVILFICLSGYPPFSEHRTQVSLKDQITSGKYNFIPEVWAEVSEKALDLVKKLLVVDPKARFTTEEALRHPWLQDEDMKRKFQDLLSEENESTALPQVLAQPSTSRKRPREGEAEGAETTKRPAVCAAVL", "settings": "singlicate", "description": "as §1"}, "[4]": {"biological_target": "320 wild-type protein kinases (Homo sapiens, UniProt P41279)", "sequence (P41279 whole entry)": "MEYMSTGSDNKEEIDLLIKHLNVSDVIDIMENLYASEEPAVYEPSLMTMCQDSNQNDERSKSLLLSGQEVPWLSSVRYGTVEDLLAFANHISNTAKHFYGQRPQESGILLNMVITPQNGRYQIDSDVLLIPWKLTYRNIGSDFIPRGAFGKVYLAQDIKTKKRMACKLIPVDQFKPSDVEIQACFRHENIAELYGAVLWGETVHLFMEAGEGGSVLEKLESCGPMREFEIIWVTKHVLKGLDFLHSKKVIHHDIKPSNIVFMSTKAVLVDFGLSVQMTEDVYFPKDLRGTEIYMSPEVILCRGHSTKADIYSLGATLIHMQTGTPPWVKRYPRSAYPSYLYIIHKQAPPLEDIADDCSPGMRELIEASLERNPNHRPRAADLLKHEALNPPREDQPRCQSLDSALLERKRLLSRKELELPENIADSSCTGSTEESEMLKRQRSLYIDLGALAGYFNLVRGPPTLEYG", "settings": "COT, singlicate", "description": "as §1"}, "[5]": {"biological_target": "T2, 320 wild-type protein kinases (Homo sapiens, UniProt Q15139)", "T2 sequence (Q15139 1-912)": "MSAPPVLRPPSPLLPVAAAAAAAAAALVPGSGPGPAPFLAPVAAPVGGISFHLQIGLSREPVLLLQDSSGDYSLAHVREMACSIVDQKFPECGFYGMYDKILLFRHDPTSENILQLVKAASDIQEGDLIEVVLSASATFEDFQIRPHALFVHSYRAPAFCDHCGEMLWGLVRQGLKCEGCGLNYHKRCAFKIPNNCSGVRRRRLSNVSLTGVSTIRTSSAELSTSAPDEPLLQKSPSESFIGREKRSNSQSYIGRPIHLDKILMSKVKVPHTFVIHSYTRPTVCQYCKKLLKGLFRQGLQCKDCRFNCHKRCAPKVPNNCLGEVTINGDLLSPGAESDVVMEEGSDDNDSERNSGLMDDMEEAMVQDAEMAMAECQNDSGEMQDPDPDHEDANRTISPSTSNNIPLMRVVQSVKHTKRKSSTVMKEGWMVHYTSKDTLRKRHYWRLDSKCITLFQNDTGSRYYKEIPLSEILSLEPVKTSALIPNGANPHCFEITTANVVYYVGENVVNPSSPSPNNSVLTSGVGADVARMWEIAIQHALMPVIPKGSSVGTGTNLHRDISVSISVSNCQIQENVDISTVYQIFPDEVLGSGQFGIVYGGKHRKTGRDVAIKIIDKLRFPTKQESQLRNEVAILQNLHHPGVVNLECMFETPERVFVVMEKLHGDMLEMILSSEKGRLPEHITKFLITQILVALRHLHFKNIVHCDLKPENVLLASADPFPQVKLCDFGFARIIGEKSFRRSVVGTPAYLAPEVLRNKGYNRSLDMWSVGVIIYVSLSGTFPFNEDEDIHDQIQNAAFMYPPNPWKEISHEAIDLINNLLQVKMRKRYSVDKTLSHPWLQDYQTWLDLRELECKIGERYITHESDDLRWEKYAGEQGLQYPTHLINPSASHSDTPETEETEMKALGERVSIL", "settings": "PKC-mu, singlicate", "description": "as §1"}, "[6]": {"biological_target": "320 wild-type protein kinases (Homo sapiens, UniProt Q15759)", "sequence (Q15759 whole entry)": "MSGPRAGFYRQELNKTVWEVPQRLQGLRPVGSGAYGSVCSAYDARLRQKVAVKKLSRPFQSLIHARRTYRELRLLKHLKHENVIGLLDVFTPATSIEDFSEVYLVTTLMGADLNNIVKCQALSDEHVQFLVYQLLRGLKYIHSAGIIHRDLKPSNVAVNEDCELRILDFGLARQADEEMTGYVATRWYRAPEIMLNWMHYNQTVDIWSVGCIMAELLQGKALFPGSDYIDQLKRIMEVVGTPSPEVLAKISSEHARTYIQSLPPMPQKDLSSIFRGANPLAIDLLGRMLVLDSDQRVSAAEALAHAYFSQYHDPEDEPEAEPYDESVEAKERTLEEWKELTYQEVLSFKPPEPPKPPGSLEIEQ", "settings": "p38-beta, singlicate", "description": "as §1"}, "[7]": {"biological_target": "320 wild-type protein kinases (Homo sapiens, UniProt Q9BYP7)", "sequence (Q9BYP7 whole entry)": "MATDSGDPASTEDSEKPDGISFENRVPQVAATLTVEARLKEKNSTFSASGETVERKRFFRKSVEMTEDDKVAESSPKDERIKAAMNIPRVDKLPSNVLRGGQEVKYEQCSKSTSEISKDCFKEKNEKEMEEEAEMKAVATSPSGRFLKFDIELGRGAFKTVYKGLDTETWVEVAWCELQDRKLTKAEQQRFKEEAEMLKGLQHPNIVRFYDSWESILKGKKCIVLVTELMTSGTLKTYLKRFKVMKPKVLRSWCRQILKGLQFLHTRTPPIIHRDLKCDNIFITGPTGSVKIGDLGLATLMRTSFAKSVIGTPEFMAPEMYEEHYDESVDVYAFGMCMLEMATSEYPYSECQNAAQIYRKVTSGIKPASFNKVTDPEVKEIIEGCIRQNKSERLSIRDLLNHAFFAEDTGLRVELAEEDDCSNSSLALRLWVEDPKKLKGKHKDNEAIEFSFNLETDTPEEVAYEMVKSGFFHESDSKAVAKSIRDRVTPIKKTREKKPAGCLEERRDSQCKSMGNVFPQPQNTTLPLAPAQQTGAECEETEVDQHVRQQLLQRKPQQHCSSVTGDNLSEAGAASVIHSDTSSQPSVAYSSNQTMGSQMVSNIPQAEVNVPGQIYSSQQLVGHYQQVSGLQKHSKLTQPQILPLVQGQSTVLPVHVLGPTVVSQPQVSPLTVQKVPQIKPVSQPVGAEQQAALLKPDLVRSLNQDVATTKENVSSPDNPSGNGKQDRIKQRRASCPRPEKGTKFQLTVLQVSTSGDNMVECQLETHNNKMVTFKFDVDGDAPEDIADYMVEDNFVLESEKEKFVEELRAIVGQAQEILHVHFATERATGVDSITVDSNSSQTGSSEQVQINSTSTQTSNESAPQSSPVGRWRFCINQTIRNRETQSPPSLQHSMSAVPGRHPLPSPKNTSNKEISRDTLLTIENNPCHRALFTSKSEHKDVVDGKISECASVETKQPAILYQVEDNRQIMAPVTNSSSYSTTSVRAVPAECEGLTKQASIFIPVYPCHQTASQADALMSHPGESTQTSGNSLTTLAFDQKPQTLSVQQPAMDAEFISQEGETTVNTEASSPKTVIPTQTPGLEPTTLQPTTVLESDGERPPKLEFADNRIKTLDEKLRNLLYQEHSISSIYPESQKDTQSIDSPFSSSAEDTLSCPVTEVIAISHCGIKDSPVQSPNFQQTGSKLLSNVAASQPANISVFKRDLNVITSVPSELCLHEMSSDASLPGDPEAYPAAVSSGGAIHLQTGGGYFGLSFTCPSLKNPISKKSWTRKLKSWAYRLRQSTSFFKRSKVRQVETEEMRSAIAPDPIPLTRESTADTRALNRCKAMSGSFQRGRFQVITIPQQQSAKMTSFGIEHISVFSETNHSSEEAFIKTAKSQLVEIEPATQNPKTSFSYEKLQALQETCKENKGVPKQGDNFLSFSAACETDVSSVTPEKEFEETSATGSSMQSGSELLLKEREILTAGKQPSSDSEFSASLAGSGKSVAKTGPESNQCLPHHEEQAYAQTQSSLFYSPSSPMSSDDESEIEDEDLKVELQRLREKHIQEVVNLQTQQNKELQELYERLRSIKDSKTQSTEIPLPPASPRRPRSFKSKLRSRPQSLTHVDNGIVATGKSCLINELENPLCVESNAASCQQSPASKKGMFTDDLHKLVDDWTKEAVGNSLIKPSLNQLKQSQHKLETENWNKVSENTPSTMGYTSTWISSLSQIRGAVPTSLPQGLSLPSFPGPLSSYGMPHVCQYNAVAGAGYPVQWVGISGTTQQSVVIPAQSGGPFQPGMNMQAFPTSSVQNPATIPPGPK", "settings": "kinase WNK3, singlicate", "description": "as §1"}, "[8]": {"biological_target": "320 wild-type protein kinases (Homo sapiens, UniProt Q9UK32)", "sequence (Q9UK32 whole entry)": "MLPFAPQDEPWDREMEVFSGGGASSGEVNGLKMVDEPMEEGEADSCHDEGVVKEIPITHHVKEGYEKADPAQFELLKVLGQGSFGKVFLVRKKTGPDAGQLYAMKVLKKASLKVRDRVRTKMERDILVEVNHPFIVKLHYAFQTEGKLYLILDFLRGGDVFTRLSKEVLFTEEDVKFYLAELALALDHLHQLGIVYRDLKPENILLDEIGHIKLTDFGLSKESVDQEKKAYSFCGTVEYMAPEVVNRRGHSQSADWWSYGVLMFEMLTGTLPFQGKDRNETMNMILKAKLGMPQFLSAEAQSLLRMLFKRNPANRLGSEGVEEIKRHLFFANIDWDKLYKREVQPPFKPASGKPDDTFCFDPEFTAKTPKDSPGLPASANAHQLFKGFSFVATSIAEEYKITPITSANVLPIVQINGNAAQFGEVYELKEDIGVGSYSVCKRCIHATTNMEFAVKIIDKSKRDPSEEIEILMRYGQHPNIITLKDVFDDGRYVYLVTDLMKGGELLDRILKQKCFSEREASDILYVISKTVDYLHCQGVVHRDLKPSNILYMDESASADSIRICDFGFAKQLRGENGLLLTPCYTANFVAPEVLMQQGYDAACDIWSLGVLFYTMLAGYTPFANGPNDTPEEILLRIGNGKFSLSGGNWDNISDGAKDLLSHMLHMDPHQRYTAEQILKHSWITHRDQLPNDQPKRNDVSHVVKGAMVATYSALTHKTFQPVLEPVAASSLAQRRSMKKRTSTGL", "settings": "kinase RPS6KA6, singlicate", "description": "as §1"}, "[9]": {"biological_target": "T3, 320 wild-type protein kinases (Homo sapiens, UniProt Q9Y2U5)", "T3 sequence (Q9Y2U5 1-619)": "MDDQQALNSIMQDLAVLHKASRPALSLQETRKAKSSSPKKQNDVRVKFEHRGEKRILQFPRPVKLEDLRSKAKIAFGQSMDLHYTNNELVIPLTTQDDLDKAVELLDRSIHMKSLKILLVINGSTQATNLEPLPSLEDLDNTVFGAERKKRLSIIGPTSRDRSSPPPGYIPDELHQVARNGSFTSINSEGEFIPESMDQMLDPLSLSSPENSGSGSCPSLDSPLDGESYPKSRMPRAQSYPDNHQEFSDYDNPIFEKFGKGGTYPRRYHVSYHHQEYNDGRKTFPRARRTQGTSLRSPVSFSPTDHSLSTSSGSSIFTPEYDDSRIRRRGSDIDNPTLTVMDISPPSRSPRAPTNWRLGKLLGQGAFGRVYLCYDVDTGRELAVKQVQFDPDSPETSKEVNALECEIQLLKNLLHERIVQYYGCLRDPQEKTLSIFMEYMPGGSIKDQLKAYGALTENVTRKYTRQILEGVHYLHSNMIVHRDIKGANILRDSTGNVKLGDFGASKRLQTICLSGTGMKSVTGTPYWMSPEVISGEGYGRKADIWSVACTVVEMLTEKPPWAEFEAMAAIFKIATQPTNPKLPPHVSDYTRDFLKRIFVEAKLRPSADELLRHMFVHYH", "settings": "singlicate", "description": "as §1"}},
  "note": "Like-named read-outs stand apart in the source and are kept apart here.",
  "data": [
    {"smiles": "C#Cc1cc(Nc2ncnc3cc(I)ccc23)ccc1Cl", "note": "[Compound 41]", "values": [
      {"measurement": "Residual activity", "setting": "[1]; 1.0E-06 M", "result": "87 % of control"},
      {"measurement": "Residual activity", "setting": "[1]; 1.0E-07 M", "result": "94 % of control"},
      {"measurement": "Residual activity, TSF1", "setting": "[2]; assay conc. 1.0E-06 M", "result": "94 % of control"},
      {"measurement": "Residual activity, TSF1", "setting": "[2]; assay conc. 1.0E-07 M", "result": "93 % of control"},
      {"measurement": "Residual activity", "setting": "[3]; CHK2, 1.0E-06 M", "result": "83 % of control"},
      {"measurement": "Residual activity", "setting": "[3]; CHK2, 1.0E-07 M", "result": "105 % of control"},
      {"measurement": "Residual activity", "setting": "[4]; 1.0E-06 M", "result": "91 % of control"},
      {"measurement": "Residual activity", "setting": "[4]; 1.0E-07 M", "result": "91 % of control"},
      {"measurement": "Residual activity", "setting": "[5]; 1.0E-06 M", "result": "89 % of control"},
      {"measurement": "Residual activity", "setting": "[5]; 1.0E-07 M", "result": "111 % of control"},
      {"measurement": "Residual activity", "setting": "[6]; 1.0E-06 M", "result": "84 % of control"},
      {"measurement": "Residual activity", "setting": "[6]; 1.0E-07 M", "result": "82 % of control"},
      {"measurement": "Residual activity, WNK3", "setting": "[7]; assay conc. 1.0E-06 M", "result": "115 % of control"},
      {"measurement": "Residual activity, WNK3", "setting": "[7]; assay conc. 1.0E-07 M", "result": "118 % of control"},
      {"measurement": "Residual activity, RPS6KA6", "setting": "[8]; assay conc. 1.0E-06 M", "result": "94 % of control"},
      {"measurement": "Residual activity, RPS6KA6", "setting": "[8]; assay conc. 1.0E-07 M", "result": "103 % of control"},
      {"measurement": "Residual activity", "setting": "[9]; MEKK2, 1.0E-06 M", "result": "93 % of control"},
      {"measurement": "Residual activity", "setting": "[9]; MEKK2, 1.0E-07 M", "result": "112 % of control"}
    ]},
    {"smiles": "C#Cc1cc(Nc2ncnc3cc(OC)c(OC)cc23)ccc1Cl", "note": "[Compound 45]", "values": [
      {"measurement": "Residual activity", "setting": "[1]; 1.0E-06 M", "result": "83 % of control"},
      {"measurement": "Residual activity", "setting": "[1]; 1.0E-07 M", "result": "91 % of control"},
      {"measurement": "Residual activity, TSF1", "setting": "[2]; assay conc. 1.0E-06 M", "result": "104 % of control"},
      {"measurement": "Residual activity, TSF1", "setting": "[2]; assay conc. 1.0E-07 M", "result": "95 % of control"},
      {"measurement": "Residual activity", "setting": "[3]; CHK2, 1.0E-06 M", "result": "78 % of control"},
      {"measurement": "Residual activity", "setting": "[3]; CHK2, 1.0E-07 M", "result": "94 % of control"},
      {"measurement": "Residual activity", "setting": "[4]; 1.0E-06 M", "result": "123 % of control"},
      {"measurement": "Residual activity", "setting": "[4]; 1.0E-07 M", "result": "98 % of control"},
      {"measurement": "Residual activity", "setting": "[5]; 1.0E-06 M", "result": "73 % of control"},
      {"measurement": "Residual activity", "setting": "[5]; 1.0E-07 M", "result": "92 % of control"},
      {"measurement": "Residual activity", "setting": "[6]; 1.0E-06 M", "result": "87 % of control"},
      {"measurement": "Residual activity", "setting": "[6]; 1.0E-07 M", "result": "90 % of control"},
      {"measurement": "Residual activity, WNK3", "setting": "[7]; assay conc. 1.0E-06 M", "result": "105 % of control"},
      {"measurement": "Residual activity, WNK3", "setting": "[7]; assay conc. 1.0E-07 M", "result": "124 % of control"},
      {"measurement": "Residual activity, RPS6KA6", "setting": "[8]; assay conc. 1.0E-06 M", "result": "70 % of control"},
      {"measurement": "Residual activity, RPS6KA6", "setting": "[8]; assay conc. 1.0E-07 M", "result": "93 % of control"},
      {"measurement": "Residual activity", "setting": "[9]; MEKK2, 1.0E-06 M", "result": "107 % of control"},
      {"measurement": "Residual activity", "setting": "[9]; MEKK2, 1.0E-07 M", "result": "120 % of control"}
    ]}
  ]
}
